Measurements taken from ChEMBL document CHEMBL5390241, “Natural Enfumafungin Analogues from Hormonema carpetanum and Their Antifungal Activities” (2023).
In brackets after ≈: the same amount, converted by molar mass.

Key:
Format in all cases: functional
Candida albicans [1] = assay: Antifungal activity against Candida albicans SC5314 assessed as inhibition in growth incubated for 48 hrs by broth microdilution method
Candida tropicalis = assay: Antifungal activity against Candida tropicalis 8915 assessed as inhibition in growth incubated for 48 hrs by broth microdilution method
Pichia kudriavzevii = assay: Antifungal activity against candida krusei 4996 assessed as inhibition in growth incubated for 48 hrs by broth microdilution method
Cryptococcus neoformans [2] = assay: Antifungal activity against Cryptococcus neoformans H99 assessed as inhibition in growth incubated for 48 hrs by broth microdilution method
Candida parapsilosis = assay: Antifungal activity against Candida parapsilosis 22019 assessed as inhibition in growth incubated for 48 hrs by broth microdilution method; details: Lodderomyces parapsilosis
[Candida] auris [3] = Antifungal activity against Candida auris 918 assessed as inhibition in growth incubated for 48 hrs by broth microdilution method; details: Candidozyma auris
Candida albicans [4] = assay: Antifungal activity against Candida albicans 10231 assessed as inhibition in growth incubated for 48 hrs by broth microdilution method
[Candida] auris [5] = Antifungal activity against Candida auris 919 assessed as inhibition in growth incubated for 48 hrs by broth microdilution method; details: Candidozyma auris
Cryptococcus neoformans [6] = assay: Antifungal activity against Cryptococcus neoformans 32609 assessed as inhibition in growth incubated for 48 hrs by broth microdilution method
Nakaseomyces glabratus = assay: Antifungal activity against Candida glabrata 537 assessed as inhibition in growth incubated for 48 hrs by broth microdilution method

SMILES	MIC80 (Candida albicans [1]) [µg/mL]	MIC80 (Candida tropicalis) [µg/mL]	MIC80 (Pichia kudriavzevii) [µg/mL]	MIC80 (Cryptococcus neoformans [2]) [µg/mL]	MIC80 (Candida parapsilosis) [µg/mL]	MIC80 ([Candida] auris [3]) [µg/mL]	MIC80 (Candida albicans [4]) [µg/mL]	MIC80 ([Candida] auris [5]) [µg/mL]	MIC80 (Cryptococcus neoformans [6]) [µg/mL]	MIC80 (Nakaseomyces glabratus) [µg/mL]
OC(Cn1cncn1)(Cn1cncn1)c1ccc(F)cc1F [FLUCONAZOLE]	1 (≈ 3.27 µM)	> 64	> 64	> 64	4 (≈ 13.1 µM)	> 64	> 64	> 64	1 (≈ 3.27 µM)	1 (≈ 3.27 µM)
CC(=O)O[C@@H]1C[C@]23C4=CC[C@@]5(C)[C@H](C(=O)O)[C@@](C)([C@H](C)C(C)C)CC[C@]5(C)[C@H]4CC[C@H]2[C@@](C)(COC3O)[C@H]1O[C@@H]1O[C@H](CO)[C@@H](O)[C@H](O)[C@H]1O (stereo not given in full) [ENFUMAFUNGIN]	4 (≈ 5.64 µM)	4 (≈ 5.64 µM)	8 (≈ 11.3 µM)	4 (≈ 5.64 µM)	8 (≈ 11.3 µM)	64 (≈ 90.3 µM)	4 (≈ 5.64 µM)	64 (≈ 90.3 µM)	8 (≈ 11.3 µM)	8 (≈ 11.3 µM)
CC(=O)O[C@@H]1C[C@]23C4=CC[C@@]5(C)[C@@H]6C(=O)C[C@H](C(C)C)[C@@]6(C)CC[C@]5(C)[C@H]4CC[C@H]2[C@@](C)(COC3O)[C@H]1O[C@@H]1O[C@H](CO)[C@@H](O)[C@H](O)[C@H]1O (stereo not given in full)	64 (≈ 92.6 µM)	64 (≈ 92.6 µM)	64 (≈ 92.6 µM)	32 (≈ 46.3 µM)	> 64	> 64	32 (≈ 46.3 µM)	> 64	64 (≈ 92.6 µM)	16 (≈ 23.2 µM)
CC(C)[C@@H](C)[C@@]1(C)CC[C@]2(C)[C@H]3CC[C@H]4[C@@]5(C)COC(O)[C@@]4(C[C@@H](O)[C@@H]5O[C@@H]4O[C@H](CO)[C@@H](O)[C@H](O)[C@H]4O)C3=CC[C@@]2(C)[C@@H]1C(=O)O (stereo not given in full)	> 64	> 64	64 (≈ 96 µM)	> 64	> 64	> 64	> 64	> 64	> 64	32 (≈ 48 µM)
